Molecules are shown by their SMILES.

The source of these data is ChEMBL document CHEMBL1909046, “DrugMatrix in vitro pharmacology data”.

The target of series [1] is T1, Alpha-2C adrenergic receptor (Homo sapiens, UniProt P18825).
T1 sequence (P18825 whole entry): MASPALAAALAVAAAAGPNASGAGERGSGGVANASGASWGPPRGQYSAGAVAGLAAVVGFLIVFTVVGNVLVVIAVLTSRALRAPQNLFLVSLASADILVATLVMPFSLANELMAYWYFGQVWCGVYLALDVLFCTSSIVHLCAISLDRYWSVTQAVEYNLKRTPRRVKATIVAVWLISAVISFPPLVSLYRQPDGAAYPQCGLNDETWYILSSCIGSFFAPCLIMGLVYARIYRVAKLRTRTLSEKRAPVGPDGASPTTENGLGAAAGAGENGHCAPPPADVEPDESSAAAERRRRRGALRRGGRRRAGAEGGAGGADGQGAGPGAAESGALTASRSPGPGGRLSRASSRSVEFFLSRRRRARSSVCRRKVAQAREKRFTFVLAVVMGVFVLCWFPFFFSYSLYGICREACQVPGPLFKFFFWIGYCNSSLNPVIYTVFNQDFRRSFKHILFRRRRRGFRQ
Nature of the series: DRUGMATRIX: Adrenergic Alpha-2C radioligand binding (ligand: [3H] MK-912). It is filed as cell membranes, Sf9, Membrane. The settings on record: sf9.

Series [2] addresses Prostaglandin G/H synthase 1 (Homo sapiens, UniProt P23219). The series is described as follows: biochemical. In kind it is tissue-based, Platelet.
The target in a further series is T2, D(4) dopamine receptor (Homo sapiens, UniProt P21917).
T2 sequence (P21917 whole entry): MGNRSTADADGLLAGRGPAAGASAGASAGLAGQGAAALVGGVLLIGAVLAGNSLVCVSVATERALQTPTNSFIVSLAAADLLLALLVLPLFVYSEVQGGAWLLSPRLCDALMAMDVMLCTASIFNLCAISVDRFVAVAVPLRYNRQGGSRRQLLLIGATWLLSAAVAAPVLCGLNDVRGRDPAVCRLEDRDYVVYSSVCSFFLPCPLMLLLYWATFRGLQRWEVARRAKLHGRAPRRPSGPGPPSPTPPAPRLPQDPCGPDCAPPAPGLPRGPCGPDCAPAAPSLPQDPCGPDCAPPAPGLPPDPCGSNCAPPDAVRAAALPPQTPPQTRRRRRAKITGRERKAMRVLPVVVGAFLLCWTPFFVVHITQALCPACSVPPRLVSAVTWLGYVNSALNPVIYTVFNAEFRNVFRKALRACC
Nature of the series: DRUGMATRIX: Dopamine D4.2 radioligand binding (ligand: [3H] Spiperone). To be noted: cho-k1; Not Active = under 50% inhibition at 10 µM. In kind it is cell membranes, Membrane.

Series [3] is described as follows: DRUGMATRIX: Glutamate, NMDA, Agonism radioligand binding (ligand: [3H] CGP-39653). It is filed as cell membranes, Rattus norvegicus, Wistar, Cerebral cortex, Membrane. To be noted: Not Active = under 50% inhibition at 10 µM.
Series [4] in a line: DRUGMATRIX: Phorbol Ester radioligand binding (ligand: [3H] PDBu). It is filed as cell membranes, Mus musculus, ICR, Brain, Membrane. The settings on record: Not Active = under 50% inhibition at 10 µM.
The target of series [5] is cGMP-specific 3',5'-cyclic phosphodiesterase (Homo sapiens, UniProt O76074). Nature of the series: DRUGMATRIX: Phosphodiesterase PDE5 enzyme inhibition (substrate: [3H]cGMP + cGMP). In kind it is tissue-based. The settings on record: platelet; Not Active = under 50% inhibition at 10 µM.
Series [6] can be described thus: DRUGMATRIX: Platelet-Derived Growth Factor (PDGF) radioligand binding (ligand: [125I] PDGF). It is filed as cell-based. To be noted: nih3t3; Not Active = under 50% inhibition at 10 µM.
The target in another series is T3, Interstitial collagenase (Homo sapiens, UniProt P03956).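 Note: MMP-1 enzyme inhibition assay using a peptide substrate; in other assays of this panel Not Active means under 50% inhibition at 10 µM.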
T3 sequence (P03956 whole entry): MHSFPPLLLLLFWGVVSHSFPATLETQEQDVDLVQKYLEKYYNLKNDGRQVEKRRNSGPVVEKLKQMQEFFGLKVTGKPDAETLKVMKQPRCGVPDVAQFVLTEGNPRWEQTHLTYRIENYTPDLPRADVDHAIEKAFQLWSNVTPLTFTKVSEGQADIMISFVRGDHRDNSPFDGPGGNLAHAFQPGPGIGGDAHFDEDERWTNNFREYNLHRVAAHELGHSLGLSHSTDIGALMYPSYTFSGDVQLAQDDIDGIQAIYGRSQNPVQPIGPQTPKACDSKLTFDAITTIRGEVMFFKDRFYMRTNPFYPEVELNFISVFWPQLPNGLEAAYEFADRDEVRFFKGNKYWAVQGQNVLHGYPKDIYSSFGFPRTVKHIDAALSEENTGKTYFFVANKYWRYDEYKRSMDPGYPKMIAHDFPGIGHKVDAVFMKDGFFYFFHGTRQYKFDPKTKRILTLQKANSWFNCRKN
Nature of the series: biochemical. It is filed as tissue-based, Rheumatoid synovial fibroblasts.

Series [7] has as its target Mitogen-activated protein kinase 14 (Homo sapiens, UniProt Q16539). Details: species or system Escherichia coli.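 Note: inhibition of p38alpha enzyme activity in a biochemical kinase assay, with myelin basic protein serving as substrate; in other assays of this panel Not Active means under 50% inhibition at 10 µM.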
A short description of series [8]: DRUGMATRIX: Purinergic P2X radioligand binding (ligand: [3H] alpha, beta-Methylene-ATP). It is filed as cell membranes, Oryctolagus cuniculus, New Zealand albino, Urinary bladder, Membrane. The settings on record: Not Active = under 50% inhibition at 10 µM.
A further series concerns the target Cytochrome P450 2D6 (Homo sapiens, UniProt P10635). The settings on record: bti-tn-5b1-4. Note: in other assays of this panel Not Active means under 50% inhibition at 10 µM.

Cytochrome P450 2D6, sequence (P10635 whole entry): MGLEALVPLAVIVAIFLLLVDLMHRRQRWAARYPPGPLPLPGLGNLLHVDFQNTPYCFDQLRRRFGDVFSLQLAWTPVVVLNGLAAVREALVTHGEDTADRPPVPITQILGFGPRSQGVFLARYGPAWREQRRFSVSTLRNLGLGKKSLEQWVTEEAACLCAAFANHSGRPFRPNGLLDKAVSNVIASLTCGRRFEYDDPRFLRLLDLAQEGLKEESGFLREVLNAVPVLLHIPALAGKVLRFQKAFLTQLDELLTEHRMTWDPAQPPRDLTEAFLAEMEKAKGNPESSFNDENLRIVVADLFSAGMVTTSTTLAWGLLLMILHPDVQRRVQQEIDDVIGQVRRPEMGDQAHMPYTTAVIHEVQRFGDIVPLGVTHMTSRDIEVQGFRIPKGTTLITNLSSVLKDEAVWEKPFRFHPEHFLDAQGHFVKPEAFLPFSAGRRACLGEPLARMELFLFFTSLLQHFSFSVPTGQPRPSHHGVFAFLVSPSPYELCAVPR
Mitogen-activated protein kinase 14, sequence (Q16539 whole entry): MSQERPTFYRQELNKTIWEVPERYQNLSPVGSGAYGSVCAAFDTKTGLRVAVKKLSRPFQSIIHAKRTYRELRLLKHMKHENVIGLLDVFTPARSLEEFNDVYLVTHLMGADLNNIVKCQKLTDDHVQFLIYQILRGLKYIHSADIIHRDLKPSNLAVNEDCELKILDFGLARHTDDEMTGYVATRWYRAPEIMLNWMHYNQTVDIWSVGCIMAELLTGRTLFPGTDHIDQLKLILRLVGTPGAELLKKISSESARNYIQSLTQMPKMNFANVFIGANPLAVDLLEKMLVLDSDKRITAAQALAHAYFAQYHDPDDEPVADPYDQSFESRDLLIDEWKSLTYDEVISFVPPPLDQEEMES
Prostaglandin G/H synthase 1, sequence (P23219 whole entry): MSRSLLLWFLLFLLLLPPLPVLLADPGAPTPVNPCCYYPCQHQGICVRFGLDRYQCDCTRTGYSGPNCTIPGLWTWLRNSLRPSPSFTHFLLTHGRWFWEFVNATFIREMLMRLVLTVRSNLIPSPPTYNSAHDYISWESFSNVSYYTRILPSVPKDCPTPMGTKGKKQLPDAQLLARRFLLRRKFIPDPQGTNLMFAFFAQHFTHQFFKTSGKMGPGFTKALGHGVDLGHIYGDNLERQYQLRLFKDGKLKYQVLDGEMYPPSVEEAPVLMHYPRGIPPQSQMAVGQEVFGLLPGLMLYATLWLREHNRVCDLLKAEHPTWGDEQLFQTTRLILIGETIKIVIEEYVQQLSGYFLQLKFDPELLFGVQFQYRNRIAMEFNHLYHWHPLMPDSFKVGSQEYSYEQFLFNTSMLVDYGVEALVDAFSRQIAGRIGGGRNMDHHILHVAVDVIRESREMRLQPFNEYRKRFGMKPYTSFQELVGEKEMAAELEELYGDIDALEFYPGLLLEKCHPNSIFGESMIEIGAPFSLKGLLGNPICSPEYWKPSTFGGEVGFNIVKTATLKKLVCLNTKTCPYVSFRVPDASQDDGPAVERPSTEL

Take `CN1C(C(=O)Nc2ccccn2)=C(O)c2sccc2S1(=O)=O` [TENOXICAM]: the IC50 (in general, the concentration that inhibits the measured activity by half) was “Not Active” in series [1]; 1.14 µM in series [2] (read-out: IC50); “Not Active” on D(4) dopamine receptor; “Not Active” in series [3]; “Not Active” in [4]; “Not Active” in [5]. Further, the IC50 entry (in series [6]; against Interstitial collagenase; in series [7]; in series [8]; on Cytochrome P450 2D6) was “Not Active” throughout. Besides, the Ki entry (in series [3]; in [4]; in [6]; in series [8]; at Cytochrome P450 2D6) was “Not Active” throughout.
As for `O=C1CCC(N2C(=O)c3ccccc3C2=O)C(=O)N1` (centres undefined) [THALIDOMIDE], the concentration for half-maximal inhibition (IC50) entry (in [1]; in [2] (platelet); at D(4) dopamine receptor; in [3]; in series [4]; in series [5]) was “Not Active” throughout. The IC50 result (in [6]; against Interstitial collagenase; in series [7]; in [8]; against Cytochrome P450 2D6) was “Not Active” throughout. For the same compound, the Ki result (in series [3]; in [4]; in series [6]; in series [8]; on Cytochrome P450 2D6) was “Not Active” each time.
On to `Cc1cccc(Nc2ccncc2S(=O)(=O)NC(=O)NC(C)C)c1` [TORSEMIDE], for which the IC50 result (in series [1]; in series [2] (platelet); at D(4) dopamine receptor; in [3]; in series [4]; in [5]) was “Not Active” in each case. The IC50 entry (in series [6]; against Interstitial collagenase; in series [7]; in series [8]; against Cytochrome P450 2D6) was “Not Active” each time. Moreover, the Ki entry (in series [3]; in [4]; in series [6]; in [8]; on Cytochrome P450 2D6) was “Not Active” each time.
Take `CC(C)C[C@H](NC(=O)[C@@H](O)[C@H](N)Cc1ccccc1)C(=O)O` [UBENIMEX]: the IC50 result (in series [1]; in series [2] (platelet); at D(4) dopamine receptor; in series [3]; in [4]; in series [5]) was “Not Active” throughout. The IC50 result (in [6]; against Interstitial collagenase; in series [7]; in [8]; at Cytochrome P450 2D6) was “Not Active” in each case. The Ki result (in series [3]; in series [4]; in series [6]; in series [8]; on Cytochrome P450 2D6) was “Not Active” each time.
As to `Cc1onc(-c2ccccc2)c1-c1ccc(S(N)(=O)=O)cc1` [VALDECOXIB], the half-inhibitory concentration (IC50) result (in series [1]; in series [2] (platelet); at D(4) dopamine receptor; in series [3]; in [4]; in series [5]) was “Not Active” each time. Also, the IC50 result (in [6]; at Interstitial collagenase; in [7]; in series [8]; against Cytochrome P450 2D6) was “Not Active” each time. Besides, the Ki result (in [3]; in [4]; in series [6]; in [8]; on Cytochrome P450 2D6) was “Not Active” in each case.
As for `CC[C@]1(O)C[C@@H]2CN(CCc3c([nH]c4ccccc34)[C@@](C(=O)OC)(c3cc4c(cc3OC)N(C)[C@H]3[C@@](O)(C(=O)OC)[C@H](OC(C)=O)[C@]5(CC)C=CCN6CC[C@]43[C@@H]65)C2)C1` [VINBLASTINE], the IC50 entry (in series [1]; in series [2] (platelet); on D(4) dopamine receptor; in series [3]; in series [4]; in series [5]) was “Not Active” in each case. For the same compound, the IC50 result (in [6]; on Interstitial collagenase; in [7]; in series [8]; against Cytochrome P450 2D6) was “Not Active” each time. The Ki entry (in series [3]; in series [4]; in [6]; in [8]; on Cytochrome P450 2D6) was “Not Active” in each case.
Regarding `CC(=O)CC(c1ccccc1)c1c(O)c2ccccc2oc1=O` (centres undefined) [WARFARIN], the IC50 entry (in [1]; in series [2] (platelet); at D(4) dopamine receptor; in series [3]; in series [4]; in series [5]) was “Not Active” in each case. Besides, the IC50 entry (in series [6]; at Interstitial collagenase; in series [7]; in series [8]; against Cytochrome P450 2D6) was “Not Active” in each case. Moreover, the Ki result (in series [3]; in [4]; in [6]; in series [8]; at Cytochrome P450 2D6) was “Not Active” in each case.
On to `C[C@@H](N)[C@H]1CC[C@H](C(=O)Nc2ccncc2)CC1` [Y-27632], for which the IC50 entry (in [1]; in series [2] (platelet); at D(4) dopamine receptor; in series [3]; in series [4]; in series [5]) was “Not Active” each time. In addition, the half-maximal inhibitory concentration (IC50) result (in series [6]; at Interstitial collagenase; in series [7]; in [8]; against Cytochrome P450 2D6) was “Not Active” in each case. Moreover, the Ki result (in series [3]; in [4]; in series [6]; in [8]; on Cytochrome P450 2D6) was “Not Active” in each case.
Turning to `[Cl-].[Cl-].[Zn+2]` [ZINC CHLORIDE], the IC50 result (in [1]; in series [2] (platelet); on D(4) dopamine receptor; in series [3]; in [4]; in series [5]) was “Not Active” each time. Also, the IC50 entry (in series [6]; against Interstitial collagenase; in series [7]; in series [8]; against Cytochrome P450 2D6) was “Not Active” each time. Moreover, the Ki entry (in [3]; in series [4]; in series [6]; in series [8]; on Cytochrome P450 2D6) was “Not Active” in each case.
